# Results reported in the NIST ThermoML archive (doi:10.1016/j.fluid.2016.12.025).
# ± gives the expanded uncertainty stated by the source.
# What was measured:
# [1] = 298.2 K; 101.33 kPa; Liquid; Vibrating tube method
# [2] = refractive index (Na D-line) (dimensionless); settings: 298.2 K; 101.33 kPa; Liquid; Standard Abbe refractometry
# [3] = xn = mol fraction of the nth substance listed; settings: 298.2 K, 101 kPa, Liquid, Vibrating tube method
# [4] = refractive index (Na D-line) (dimensionless); xn = mol fraction of the nth substance listed; settings: 298.2 K, 101 kPa, Liquid, Standard Abbe refractometry
smiles,measurement,setting,value
CC(C)CCO [3-methylbutan-1-ol],mass density,[1],808.94 ± 0.16 kg/m3
same,refractive index,[2],1.4061 ± 0.0004
CCCCO [butan-1-ol],mass density,[1],806.01 ± 0.16 kg/m3
same,refractive index,[2],1.3973 ± 0.0004
CC(C)CCO [3-methylbutan-1-ol] + CCCCOC(C)=O,mass density,[3]; x2 = 0.0497,812.53 ± 0.18 kg/m3
same,mass density,[3]; x2 = 0.104,816.52 ± 0.18 kg/m3
same,mass density,[3]; x2 = 0.1998,823.52 ± 0.17 kg/m3
same,mass density,[3]; x2 = 0.2999,830.68 ± 0.17 kg/m3
same,mass density,[3]; x2 = 0.3999,837.66 ± 0.17 kg/m3
same,mass density,[3]; x2 = 0.5001,844.46 ± 0.17 kg/m3
same,mass density,[3]; x2 = 0.6006,851.08 ± 0.17 kg/m3
same,mass density,[3]; x2 = 0.7,857.56 ± 0.16 kg/m3
same,mass density,[3]; x2 = 0.8003,863.93 ± 0.16 kg/m3
same,mass density,[3]; x2 = 0.9005,870.23 ± 0.16 kg/m3
same,mass density,[3]; x2 = 0.9466,873.08 ± 0.16 kg/m3
same,refractive index,[4]; x2 = 0.0497,1.4049 ± 0.0007
same,refractive index,[4]; x2 = 0.104,1.4039 ± 0.0007
same,refractive index,[4]; x2 = 0.1998,1.4021 ± 0.0007
same,refractive index,[4]; x2 = 0.2999,1.4005 ± 0.0007
same,refractive index,[4]; x2 = 0.3999,1.399 ± 0.0007
same,refractive index,[4]; x2 = 0.5001,1.3976 ± 0.0007
same,refractive index,[4]; x2 = 0.6006,1.3962 ± 0.0007
same,refractive index,[4]; x2 = 0.7,1.395 ± 0.0007
same,refractive index,[4]; x2 = 0.8003,1.3939 ± 0.0007
same,refractive index,[4]; x2 = 0.9005,1.3928 ± 0.0007
same,refractive index,[4]; x2 = 0.9466,1.3923 ± 0.0007
CCCCOC(C)=O [butyl ethanoate],mass density,[1],876.26 ± 0.14 kg/m3
same,refractive index,[2],1.3918 ± 0.0004
CCCCCCO [hexan-1-ol],mass density,[1],815.88 ± 0.16 kg/m3
same,refractive index,[2],1.4161 ± 0.0004
CC(C)CCO [3-methylbutan-1-ol] + CCCCCCO,mass density,[3]; x1 = 0.0496,815.43 ± 0.16 kg/m3
same,mass density,[3]; x1 = 0.0997,815.12 ± 0.16 kg/m3
same,mass density,[3]; x1 = 0.2005,814.49 ± 0.16 kg/m3
same,mass density,[3]; x1 = 0.3003,813.86 ± 0.16 kg/m3
same,mass density,[3]; x1 = 0.3986,813.22 ± 0.16 kg/m3
same,mass density,[3]; x1 = 0.4998,812.55 ± 0.16 kg/m3
same,mass density,[3]; x1 = 0.6001,811.87 ± 0.16 kg/m3
same,mass density,[3]; x1 = 0.7002,811.17 ± 0.16 kg/m3
same,mass density,[3]; x1 = 0.8,810.46 ± 0.16 kg/m3
same,mass density,[3]; x1 = 0.8998,809.73 ± 0.16 kg/m3
same,mass density,[3]; x1 = 0.9504,809.35 ± 0.16 kg/m3
same,refractive index,[4]; x1 = 0.0496,1.4154 ± 0.0007
same,refractive index,[4]; x1 = 0.0997,1.4149 ± 0.0007
same,refractive index,[4]; x1 = 0.2005,1.414 ± 0.0007
same,refractive index,[4]; x1 = 0.3003,1.4131 ± 0.0007
same,refractive index,[4]; x1 = 0.3986,1.4121 ± 0.0007
same,refractive index,[4]; x1 = 0.4998,1.4111 ± 0.0007
same,refractive index,[4]; x1 = 0.6001,1.4101 ± 0.0007
same,refractive index,[4]; x1 = 0.7002,1.4091 ± 0.0007
same,refractive index,[4]; x1 = 0.8,1.4081 ± 0.0007
same,refractive index,[4]; x1 = 0.8998,1.4069 ± 0.0007
same,refractive index,[4]; x1 = 0.9504,1.4064 ± 0.0007
CCCCCCO [hexan-1-ol] + CCCCO,mass density,[3]; x2 = 0.0543,815.53 ± 0.16 kg/m3
same,mass density,[3]; x2 = 0.099,815.22 ± 0.16 kg/m3
same,mass density,[3]; x2 = 0.2042,814.42 ± 0.16 kg/m3
same,mass density,[3]; x2 = 0.2993,813.64 ± 0.16 kg/m3
same,mass density,[3]; x2 = 0.4052,812.7 ± 0.16 kg/m3
same,mass density,[3]; x2 = 0.4994,811.8 ± 0.16 kg/m3
same,mass density,[3]; x2 = 0.5938,810.85 ± 0.16 kg/m3
same,mass density,[3]; x2 = 0.7005,809.72 ± 0.16 kg/m3
same,mass density,[3]; x2 = 0.8004,808.58 ± 0.16 kg/m3
same,mass density,[3]; x2 = 0.9003,807.35 ± 0.16 kg/m3
same,mass density,[3]; x2 = 0.9499,806.7 ± 0.16 kg/m3
same,refractive index,[4]; x2 = 0.0543,1.4148 ± 0.0007
same,refractive index,[4]; x2 = 0.099,1.4142 ± 0.0007
same,refractive index,[4]; x2 = 0.2042,1.4126 ± 0.0007
same,refractive index,[4]; x2 = 0.2993,1.4111 ± 0.0007
same,refractive index,[4]; x2 = 0.4052,1.4094 ± 0.0007
same,refractive index,[4]; x2 = 0.4994,1.4078 ± 0.0007
same,refractive index,[4]; x2 = 0.5938,1.406 ± 0.0007
same,refractive index,[4]; x2 = 0.7005,1.4038 ± 0.0007
same,refractive index,[4]; x2 = 0.8004,1.4017 ± 0.0007
same,refractive index,[4]; x2 = 0.9003,1.3997 ± 0.0007
same,refractive index,[4]; x2 = 0.9499,1.3985 ± 0.0007
CC(C)CCO [3-methylbutan-1-ol] + CCCCO,mass density,[3]; x2 = 0.0498,808.87 ± 0.16 kg/m3
same,mass density,[3]; x2 = 0.0999,808.78 ± 0.16 kg/m3
same,mass density,[3]; x2 = 0.1999,808.58 ± 0.16 kg/m3
same,mass density,[3]; x2 = 0.3,808.35 ± 0.16 kg/m3
same,mass density,[3]; x2 = 0.4,808.09 ± 0.16 kg/m3
same,mass density,[3]; x2 = 0.4999,807.81 ± 0.16 kg/m3
same,mass density,[3]; x2 = 0.6016,807.5 ± 0.16 kg/m3
same,mass density,[3]; x2 = 0.7015,807.16 ± 0.16 kg/m3
same,mass density,[3]; x2 = 0.7999,806.8 ± 0.16 kg/m3
same,mass density,[3]; x2 = 0.9007,806.41 ± 0.16 kg/m3
same,mass density,[3]; x2 = 0.9506,806.21 ± 0.16 kg/m3
same,refractive index,[4]; x2 = 0.0498,1.4056 ± 0.0007
same,refractive index,[4]; x2 = 0.0999,1.4053 ± 0.0007
same,refractive index,[4]; x2 = 0.1999,1.4045 ± 0.0007
same,refractive index,[4]; x2 = 0.3,1.4037 ± 0.0007
same,refractive index,[4]; x2 = 0.4,1.4029 ± 0.0007
same,refractive index,[4]; x2 = 0.4999,1.402 ± 0.0007
same,refractive index,[4]; x2 = 0.6016,1.4009 ± 0.0007
same,refractive index,[4]; x2 = 0.7015,1.3998 ± 0.0007
same,refractive index,[4]; x2 = 0.7999,1.3988 ± 0.0007
same,refractive index,[4]; x2 = 0.9007,1.3981 ± 0.0007
same,refractive index,[4]; x2 = 0.9506,1.3978 ± 0.0007
CCCCOC(C)=O [butyl ethanoate] + CCCCCCO,mass density,[3]; x1 = 0.0503,818.79 ± 0.17 kg/m3
same,mass density,[3]; x1 = 0.1001,821.75 ± 0.17 kg/m3
same,mass density,[3]; x1 = 0.2012,827.7 ± 0.17 kg/m3
same,mass density,[3]; x1 = 0.3007,833.61 ± 0.17 kg/m3
same,mass density,[3]; x1 = 0.4001,839.54 ± 0.17 kg/m3
same,mass density,[3]; x1 = 0.4999,845.54 ± 0.17 kg/m3
same,mass density,[3]; x1 = 0.6004,851.63 ± 0.16 kg/m3
same,mass density,[3]; x1 = 0.6991,857.64 ± 0.16 kg/m3
same,mass density,[3]; x1 = 0.8003,863.85 ± 0.16 kg/m3
same,mass density,[3]; x1 = 0.8953,869.76 ± 0.16 kg/m3
same,mass density,[3]; x1 = 0.9452,872.86 ± 0.16 kg/m3
same,refractive index,[4]; x1 = 0.0503,1.4144 ± 0.0007
same,refractive index,[4]; x1 = 0.1001,1.4131 ± 0.0007
same,refractive index,[4]; x1 = 0.2012,1.4104 ± 0.0007
same,refractive index,[4]; x1 = 0.3007,1.4078 ± 0.0007
same,refractive index,[4]; x1 = 0.4001,1.4053 ± 0.0007
same,refractive index,[4]; x1 = 0.4999,1.4029 ± 0.0007
same,refractive index,[4]; x1 = 0.6004,1.4005 ± 0.0007
same,refractive index,[4]; x1 = 0.6991,1.3982 ± 0.0007
same,refractive index,[4]; x1 = 0.8003,1.396 ± 0.0007
same,refractive index,[4]; x1 = 0.8953,1.3939 ± 0.0007
same,refractive index,[4]; x1 = 0.9452,1.3929 ± 0.0007
